This is an account of results in patent US5753664A, “Heterocyclic compounds, their production and use” (Takeda Chemical Industries, Ltd., priority 1995, dated 1998).

The test system of test [1] is human prostatic carcinoma cells PC-3. The test can be described thus: Inhibitory action against the growth of subcutaneously implanted tumor (Test Example 2, subcutaneous dosing). The format is in vivo, human; BALB/c nu/nu mouse. The note with it: 80 mg/kg s.c., Mon/Wed/Fri for 3 weeks; for Tumor volume gain: 46th day after transplantation, mean ± SD; for T/C: 46th day, ratio of tumor volume gain treated/control. Here is the method: Inhibitory action of the test compounds against the growth of subcutaneously implanted tumor
The human prostatic carcinoma cells PC-3, which are maintained in vitro, were harvested using 0.05% trypsin, washed with Ham's F12K medium containing 10% serum, and then suspended in PBS (phosphate-buffered saline) at a concentration of 3×10^7 cells/ml. The aliquot of 100 μl was transplanted into the right central flank region of a 7-week old, male BALB/c nu/nu mouse using a syringe with a 25 gauge needle. After the size of the resulting tumor mass was measured on the 25th day after the transplantation, the mice were divided into groups of five animals (the average tumor volume of each group was between […]), and then the treatment with test compounds was commenced. Tumor volume was calculated according to the formulation: tumor volume =0.5×(the longest diameter)×(the shortest diameter)^2 after two-dimensional measurement of the tumor mass by a caliper. The test compounds were suspended in 0.5% methylcellulose/physiological saline, and subcutaneously injected at a volume of 10 μl/g body weight.
Thereafter the test compounds were administered every Monday, Wednesday and Friday for 3 weeks. The inhibitory action was assessed on the 46th day after the transplanation by the ratio of tumor volume gain of treated groups to that of the control group(T/C %). The dosage of the test compounds was expressed as mg/kg/shot.

The subject of test [2] is Prostate carcinoma cell line PC-3. Briefly: In vitro prostate carcinoma cell proliferation inhibition assay (MTT). The format is cell-based, human. The note with it: Homo sapiens, 72 h; PC-3, 3 days incubation, MTT; read-out: IC50 PC-3. Here is the method:
In vitro prostate carcinoma cell proliferation inhibition assay
Prostate carcinoma cell line PC-3 cells were suspended in Ham's F-12K medium (Flow Laboratories or Dainippon Pharmaceutical Co,. Ltd) supplemented with 10% fetal calf serum, and seeded in a 96-well microtiter plate (5000 cells/50 or 75 μl/well). The plate was then incubated in a 5% CO2 incubator at 37° C. On the following day, a 3-fold dilution series with the medium with serum of the test compound in N,N-dimethylformamide (DMF) (50 or 25 μl/well) were added (final volume […]) and the plate was incubated for another 3 days. Following addition of a thiazolyl-tetrazolium (MTT) solution, absorbance based on the viable cell number was determined "Tada et al., Journal of Immunological Methods, 93, 157 (1986)". With the estimated cell number in the control group to which the test compound solution was not added being taken as 100%, the percentage of the estimated cell number in each test group was determined and the concentration (IC50 value) of the test compound which was required for 50% inhibition of the estimated viable cell number in the control group was calculated.

Test [3] deals with human prostatic carcinoma cells PC-3. The test can be described thus: Inhibitory action against the growth of subcutaneously implanted tumor (Test Example 3, oral dosing). The format is in vivo, human; BALB/c nu/nu mouse. As to conditions: 75 mg/kg p.o., once a day for 3 weeks. Here is the method:
(§1) Inhibitory action of the test compound against the growth of subcutaneously implanted tumor
The human prostatic carcinoma cells PC-3, which are maintained in vitro, were harvested using 0.05% trypsin, washed with Ham's F12K medium containing 10% serum, and then suspended in PBS (phosphate-buffered saline) at a concentration of 3×10^7 cells/ml. The aliquot of 100 μl was transplanted into the right central flank region of a 7-week old, male BALB/c nu/nu mouse using a syringe with a 25 guage needle. After the size of the resulting tumor mass was measured on the 32nd day after the transplantation, the mice were divided into groups of five animals (the average tumor volume of each group was between 273 and 293 mm^3), and then the treatment with test compound was commenced. Tumor volume was calculated according to the formulation: tumor volume =0.5×(the longest diameter)×(the shortest diameter)2 after two-dimensional measurement of the tumor mass by a caliper. The test compound was suspended in 0.5% methylcellulose/physiological saline, and orally administered at a volume of 10 μl/g body weight. […] The inhibitory action was assessed on the 53rd day after the transplanation, the first day after the last administration, by the ratio of tumor volume gain of treated groups to that of the control group (T/C %). The dosage of the test compounds was expressed as mg/kg/shot.

The test system is the same in test [4]. Briefly: Inhibitory action against the growth of subcutaneously implanted tumor (Test Example 4, oral dosing). In kind it is in vivo, human; BALB/c nu/nu mouse. As to conditions: once a day for 3 weeks; for Tumor volume gain: 52nd day after transplantation, mean ± SD; for T/C: 52nd day, ratio of tumor volume gain treated/control. Here is the method:
as §1
The human prostatic carcinoma cells PC-3, which are maintained in vitro, were harvested using 0.05% trypsin, washed with Ham's F12K medium containing 10% serum, and then suspended in PBS (phosphate-buffered saline) at a concentration of 3×10^7 cells/ml. The aliquot of 100 μl was transplanted into the right central flank region of a 7-week old, male BALB/c nu/nu mouse using a syringe with a 25 gauge needle. After the size of the resulting tumor mass was measured on the 31st day after the transplanation, the mice were divided into groups of five animals (the average tumor volume of each group was between 273 and 293 mm^3), and then the treatment with test compound was commenced. Tumor volume was calculated according to the formulation: tumor volume=0.5×(the longest diameter)×(the shortest diameter)^2 after two-dimensional measurement of the tumor mass by a caliper. The test compound was suspended in 0.5% methylcellulose/physiological saline, and orally administered at a volume of 10 μl/g body weight. Thereafter the test compound was administered once a day for 3 weeks. The inhibitory action was assessed on the 52nd day after the transplanation, the first day after the last administration, by the ratio of tumor volume gain of treated groups to that of the control group (T/C %). The dosage of the test compound is expressed as mg/kg/shot.

Turning to `Cn1c(SCc2ccc(C(=O)c3ccc(Cl)cc3)cc2)nc2ccsc2c1=O` [Example 7, 2-[4-(4-Chlorobenzoyl)benzyl]thio-3-methylthieno-[3,2-d]pyrimidin-4(3H)-one], in test [1], the Tumor volume gain is recorded as 445 ± 110 mm^3 and the T/C is on record as 49%.

In the case of `Cc1cccc2nc(SCc3ccc(C(=O)c4ccc(Cl)cc4)cc3)n(C)c(=O)c12` [Example 42, 2-[4-(4-Chlorobenzoyl)benzylthio]-3,5-dimethyl-quinazolin-4-one], in test [1], the Tumor volume gain was determined as 329 ± 252 mm^3 and the T/C amounted to 36%.

For `O=C(c1ccc(Cl)cc1)c1ccc(Cn2ccn3c(=O)c4c(nc23)CCCC4)cc1` [Example 189, 1-[4-(4-Chlorobenzoyl)benzyl]-6,7,8,9-tetrahydroimidazo[2,1-b]quinazolin-5(1H)-one], in test [2], the IC50 came to 1.9 nM. Besides, the Tumor volume gain in test [3] (53rd day after transplantation, mean ± SD) is on record as 697 ± 199 mm^3. The T/C in test [3] (53rd day, ratio of tumor volume gain treated/control) is 53%.

Turning to `Cc1c(OCc2ccc(C(=O)c3ccc(C(F)(F)F)cc3)cc2)nc2n(c1=O)CCCC2` [Example 385, 3-Methyl-2-[4-(4-trifluoromethylbenzoyl)benzyloxy]-6,7,8,9-tetrahydro-4H-pyrido[1,2-a]pyrimidin-4-one], the values for the Tumor volume gain in test [4] (25 mg/kg p.o.), in test [4] (50 mg/kg p.o.) and in test [4] (75 mg/kg p.o.) were 893 ± 247 mm^3, 732 ± 156 mm^3 and 596 ± 176 mm^3, respectively. Further, the T/C in test [4] (25 mg/kg p.o.) came to 63%; in test [4] (50 mg/kg p.o.), 52%; in test [4] (75 mg/kg p.o.) it was 42%. Also, in test [2], the IC50 was 4.6 nM.
